According to patent publication US20120004281A1, “RNA Interference Mediated Inhibition of the Nerve Growth Factor Beta Chain (NGFB) Gene Expression Using Short Interfering Nucleic Acid (siNA)” (Merck Sharp & Dohme Corp, priority 2009, published 2012):
[invAb] = inverted abasic unit; m = 2'-O-methyl; r = 2'-OH (RNA); f = 2'-fluoro

Key:
NGFβ protein = assay: NGFβ ELISA (protein knock-down in Calu-1 cells); assay type: cell-based, human; settings: for Max % Protein Reduction at 3 nM: 3 nM siNA, relative to negative universal control siNA (UC3); for IC50: 200 fM to 3 nM siNA, ELISA
Description: In a 96-well plate, 5,000 Calu-1cells/well were seeded in 100 uL of complete growth media and incubated overnight at 37° C. with 5% CO2. The cells were transfected with siNAs using RNAiMax (Invitrogen, Cat# 13778-150); final concentration of siNAs is 3e-09, le-09, 3e-10, le-10, 4e-11, le-11, 4e-12, le-12, 5e-13, and 2e-13 M. The amount of RNAiMax in each well is 0.3 uL. The siNAs were incubated for 24 hours. The medium was replaced with 100 uL of fresh complete growth medium. The cells were incubated for 48 hours. 80 uL of the medium from each well was collected into a separate 96-well plate. The samples were frozen immediately at −80° C. until ready the assay was ready to be performed.
ELISA was performed using NGF Emax® ImmunoAssay System (Promega, Cat # G7630) according to the manufaturer's instructions. The samples were diluted 1:2 with the blocking buffer provided in the kit. The samples absorbance was recorded at 450 nm on a SpectraMax plate reader (Molecular Devices) within 30 minutes of stopping the reaction.
Sigmaplot was used to determine IC50 values for each of the tested siRNAs using a sigmoidal dose response calculation. The maximum percentage of protein knock-down was determined by dividing the pg/mL at each treated siNA concentration by the pg/mL of the control treated cells at the same concentration of siNA. This number was then converted to a percentage to give the percent of protein remaining.
Various siNAs were also evaluated for their potential to knock-down NGFβ protein using an ELISA assay. Six siNAs were tested in an NGFβ ELISA assay across a range of concentrations of siNAs (200 fM to 3 nM) and the level of reduction of protein was determined relative to treatment of the cells with identical concentrations of the negative universal control siNA (UC3) (see Table 6).

NGFβ mRNA = NGFβ mRNA knock-down in Calu-1 cells (RNAiMax transfection, Taqman RT-PCR); assay type: cell-based, human; settings: for Primary Screen % KD (10 nM) / IC50 / Maximum % KD in DRC: human CaLu-1 cells; for Primary Screen % KD (10 nM): mean ± S.D. of four experiments; for IC50 / Maximum % KD in DRC: dose response 0.083fM to 30 nM, mean ± S.D.; for % KD in CaLu-1 Cells: human Calu-1 cells, 10 nM siNA, 24 hrs post-transfection, relative to non-targeting control, normalized to GAPDH
Description: Calu-1 (human; ATCC cat# HTB-54): Cells were cultured at 37° C. in the presence of 5% CO2 and grown in McCoy's 5a medium supplemented with fetal bovine serum at a final concentration of 10% and 100 μg/mL of streptomycin and 100 U/mL penicillin.
All transfections were performed using RNAiMax (Invitrogen Cat# 13778-150) as per the manufacturer's instructions.
Cells were plated in all wells of a tissue-culture treated, 96-well plate at a final count of 5,000 cells/well in […], of appropriate culture media. Cells were cultured for 24 hours after plating at 37° C. in the presence of 5% CO2.
After 24 hours, complexes containing siNA and RNAiMax were created as follows: A solution of RNAiMax diluted 33-fold in OPTI-MEM was prepared. In parallel, solutions of the siNAs for testing were prepared to a final concentration of 120 nM in OPTI-MEM. After incubation of RNAiMax/OPTI-MEM solution at room temperature for 5 min, an equal volume of the siRNA solution and the RNAiMax solution were added together for each of the siNAs.
This solution was incubated at room temperature for 20 minutes. After incubation, 20 uL of the solution was added to each of the relevant wells.
The final concentration of siNA in each well was 10 nM and the final volume of RNAiMax in each well was 0.3u1.
The time of incubation with the RNAiMax-siNA complexes was 24 hours, unless otherwise indicated. There was no change in media between the transfection and harvesting of the cells unless otherwise indicated.
Dose response curves were carried out in a similar fashion in 96-well plates, while maintaining a constant amount of RNAiMax in each transfection.
RNA was extracted from a 96-well plate using the TaqMan® Gene Expression Cells-to-CT™ Kit (Cat# 4399002) with a modified protocol. Briefly, a 60 uL (1 plate) or 110 uL (2 plates) of the Lysis Solution with DNase I was dispensed into each well of the Lysis Buffer Plate (twin.tec full skirt plate). The lysis buffer and stop plates were stored at 4° C. until the cells were washed.
The plate was spun at 1100 rpm for 5 minutes. The culture medium was aspirated and discarded from the wells of the culture plate. The lysis was performed automatically using a BioMek FX instrument and method. After the Biomek method was completed, the lysis plate was incubated for 2 min. at room temperature. The lysis plate can be stored for 2 hours at 4° C., or at −20° C. or −80° C. for two months.
Each well of the reverse transcription plate required 10 uL of 2× reverse transcriptase Buffer, luL of 20× reverse transcription enzyme and 2 uL of nuclease-free water. The reverse transcription master mix was prepared by mixing 2× reverse transcription buffer, 20× reverse transcription enzyme mix, and nuclease-free water. 13 uL of the reverse transcription master mix was dispensed into each well of the reverse transcription plate (semi-skirted). A separate reverse transcription plate was prepared for each cell plate. The plate was loaded onto a Biomek NX or Biomek FX Dual-96 and the Biomek method was run. The program is programmed to automatically added 7 uL of lysate from the cell lysis procedure described above into each well of the reverse transcription plate. The plate is sealed and spun on a centrifuge (1000 rpm for 30 seconds) to settle the contents to the bottom of the reverse transcription plate. The plate is placed in a thermocycler at 37° C. for 60 min, 95° C. for 5 min, and 4° C. until the plate is removed from the thermocycler. Upon removal, if not used immediately, the plate was frozen at −20° C.
A series of probes and primers were used to detect the various mRNA transcripts of the genes of NGFβ, BDNF and GAPDH in human cell lines. All the Taqman probes and primers for the experiments here-in described were supplied as pre-validated sets by Applied Biosystems, Inc. (see Table 3). The assays were performed on an ABI 7900 instrument, according to the manufacturer's instructions. […]

Substance | Max % Protein Reduction at 3 nM (NGFβ protein) | IC50 (NGFβ protein) | Primary Screen % KD (10 nM) (NGFβ mRNA) | IC50 (NGFβ mRNA) | Maximum % KD in DRC (NGFβ mRNA) | % KD in CaLu-1 Cells (NGFβ mRNA)
25422-DC: siNA duplex, NGFβ target site 171; sense B uGuccAuGuuGuucuAcAc TTB (SEQ ID NO: 69), antisense GUGuAGAAcAAcAuGGAcAUU (SEQ ID NO: 70) (sense UGUCCAUGUUGUUCUACACTT; antisense GUGUAGAACAACAUGGACAUU; sense: DNA at AGT, 2'-fluoro at CU, [invAb] at 5' end, 3' end, backbone not given here; antisense: sugars from the 5' end rrrfmmmmfmmfmfmmmfmmm, backbone not given here) | 77% | 0.395 nM | 72 ± 11% | 60 ± 45 pM | 61 ± 9% | 72%
25416-DC: siNA duplex, NGFβ target site 771; sense B GuAccAcGAcucAcAccuu TTB (SEQ ID NO: 57), antisense AAGGuGuGAGucGuGGuAcUU (SEQ ID NO: 58) (sense GUACCACGACUCACACCUUTT; antisense AAGGUGUGAGUCGUGGUACUU; sense: DNA at AGT, 2'-fluoro at CU, [invAb] at 5' end, 3' end, backbone not given here; antisense: sugars from the 5' end rrrmfmfmmmffmfmmfmfmm, backbone not given here) | 89% | 0.096 nM | 80 ± 3% | 35 ± 33 pM | 61 ± 7% | 69%
25424-DC: siNA duplex, NGFβ target site 176; sense B AuGuuGuucuAcAcucuGA TTB (SEQ ID NO: 73), antisense UCAGAGuGuAGAAcAAcAuUU (SEQ ID NO: 74) (sense AUGUUGUUCUACACUCUGATT; antisense UCAGAGUGUAGAACAACAUUU; sense: DNA at AGT, 2'-fluoro at CU, [invAb] at 5' end, 3' end, backbone not given here; antisense: sugars from the 5' end rrrmmmfmfmmmmfmmfmfmm, backbone not given here) | 85% | 0.108 nM | 82 ± 9% | 50 ± 55 pM | 72 ± 5% | 78%
25417-DC: siNA duplex, NGFβ target site 655; sense B GGuGAAcAuuAAcAAcAGu TTB (SEQ ID NO: 59), antisense ACUGuuGuuAAuGuucAccUU (SEQ ID NO: 60) (sense GGUGAACAUUAACAACAGUTT; antisense ACUGUUGUUAAUGUUCACCUU; sense: DNA at AGT, 2'-fluoro at CU, [invAb] at 5' end, 3' end, backbone not given here; antisense: sugars from the 5' end rrrmffmffmmfmfffmffmm, backbone not given here) | 77% | 0.303 nM | 71 ± 2% | 71 ± 46 pM | 61 ± 2% | 68%
25409-DC: siNA duplex, NGFβ target site 468; sense B cucAGGAucuGGAcuucGA TTB (SEQ ID NO: 43), antisense UCGAAGuccAGAuccuGAGUU (SEQ ID NO: 44) (sense CUCAGGAUCUGGACUUCGATT; antisense UCGAAGUCCAGAUCCUGAGUU; sense: DNA at AGT, 2'-fluoro at CU, [invAb] at 5' end, 3' end, backbone not given here; antisense: sugars from the 5' end rrrmmmfffmmmffffmmmmm, backbone not given here) | – | – | – | – | – | 52%
25427-DC: siNA duplex, NGFβ target site 516; sense B cucAcAGGAGcAAGcGGuc TTB (SEQ ID NO: 79), antisense GACcGcuuGcuccuGuGAGUU (SEQ ID NO: 80) (sense CUCACAGGAGCAAGCGGUCTT; antisense GACCGCUUGCUCCUGUGAGUU; sense: DNA at AGT, 2'-fluoro at CU, [invAb] at 5' end, 3' end, backbone not given here; antisense: sugars from the 5' end rrrfmfffmfffffmfmmmmm, backbone not given here) | – | – | – | – | – | 6%
25420-DC: siNA duplex, NGFβ target site 510; sense B AcAGGAcucAcAGGAGcAA TTB (SEQ ID NO: 65), antisense UUGcuccuGuGAGuccuGuUU (SEQ ID NO: 66) (sense ACAGGACUCACAGGAGCAATT; antisense UUGCUCCUGUGAGUCCUGUUU; sense: DNA at AGT, 2'-fluoro at CU, [invAb] at 5' end, 3' end, backbone not given here; antisense: sugars from the 5' end rrrfffffmfmmmffffmfmm, backbone not given here) | – | – | – | – | – | 44%
25411-DC: siNA duplex, NGFβ target site 101; sense B uccGGAcccAAuAAcAGuu TTB (SEQ ID NO: 47), antisense AACuGuuAuuGGGuccGGAUU (SEQ ID NO: 48) (sense UCCGGACCCAAUAACAGUUTT; antisense AACUGUUAUUGGGUCCGGAUU; sense: DNA at AGT, 2'-fluoro at CU, [invAb] at 5' end, 3' end, backbone not given here; antisense: sugars from the 5' end rrrfmffmffmmmfffmmmmm, backbone not given here) | – | – | – | – | – | 54%
